Measured values reported in patent US11180504B2 (ORCHID PHARMA LTD., priority 2016, dated 2021).
≈ marks a conversion by molar mass, not a printed value. Like-named read-outs stand apart in the source and are kept apart here.

Legend:
[1] = test system: methicillin-sensitive Staphylococcus aureus; test: MIC by broth micro-dilution (CLSI), methicillin-sensitive S. aureus; format: cell-based; conditions: MSSA S. aureus ATCC29213
[2] = test system: carbapenem sensitive Escherichia coli; test: MIC by broth micro-dilution (CLSI), carbapenem sensitive E. coli; format: cell-based
[3] = test system: carbapenemase producing K. pneumoniae; test: MIC by broth micro-dilution (CLSI), carbapenemase producing K. pneumoniae; format: cell-based, Klebsiella pneumoniae
[4] = test system: carbapenem sensitive Pseudomonas aeruginosa; test: MIC by broth micro-dilution (CLSI), carbapenem sensitive P. aeruginosa; format: cell-based
[5] = Staphylococcus aureus, ATCC 29213 / MSSA, read-out: MIC
[6] = Escherichia coli, ATCC25922, ESBL −ve E. coli ATCC25922, read-out: MIC
[7] = Klebsiella pneumoniae, ATCCBAA1705, KPC-2 K. pneumoniae ATCC BAA-1705, read-out: MIC
[8] = Pseudomonas aeruginosa, ATCC27853, Meropenem susceptible P. aeruginosa ATCC27853, read-out: MIC

SMILES: C[C@@H](NC(=O)Cn1cnnn1)[C@H]1C(=O)N2C(C(=O)O)=C(S[C@@H]3CN[C@H](C(=O)N4CCN(CCO)CC4)C3)[C@H](C)[C@H]12 [Example 416, (4R,5S,6R)-6-((R)-1-(2-(1H-tetrazol-1-yl)acetamido)ethyl)-3-((3S,5S)-5-(4-(2-hydroxyethyl)piperazine-1-carbonyl)pyrrolidin-3-ylthio)-4-methyl-7-oxo-1-azabicyclo[3.2.0]hept-2-ene-2-carboxylic acid]
- MIC [1, 5]: 4 µg/mL (≈ 6.92 µM)
- MIC [2, 6]: 0.5 µg/mL (≈ 0.866 µM)
- MIC [3, 7]: 2 µg/mL (≈ 3.46 µM)
- MIC [4, 8]: 8 µg/mL (≈ 13.8 µM)

SMILES: C[C@@H](NC(=O)Cn1cnnn1)[C@H]1C(=O)N2C(C(=O)O)=C(S[C@@H]3CN[C@H](C(=O)N4CCN(CC(N)=O)CC4)C3)[C@H](C)[C@H]12 [Example 417, (4R,5S,6R)-6-((R)-1-(2-(1H-tetrazol-1-yl)acetamido)ethyl)-3-((3S,5S)-5-(4-(2-amino-2-oxoethyl)piperazine-1-carbonyl)pyrrolidin-3-ylthio)-4-methyl-7-oxo-1-azabicyclo[3.2.0]hept-2-ene-2-carboxylic acid]
- MIC [1, 5]: 8 µg/mL (≈ 13.5 µM)
- MIC [2, 6]: 0.5 µg/mL (≈ 0.847 µM)
- MIC [3, 7]: 2 µg/mL (≈ 3.39 µM)
- MIC [4, 8]: 16 µg/mL (≈ 27.1 µM)

SMILES: C[C@@H](NC(=O)Cn1cnnn1)[C@H]1C(=O)N2C(C(=O)O)=C(S[C@@H]3CN[C@H](C(=O)N4CCC5(CCCCN5)CC4)C3)[C@H](C)[C@H]12 [Example 418, (4R,5S,6R)-3-((3S,5S)-5-(1,9-diazaspiro[5.5]undecane-9-carbonyl)pyrrolidin-3-ylthio)-6-((R)-1-(2-(1H-tetrazol-1-yl)acetamido)ethyl)-4-methyl-7-oxo-1-azabicyclo[3.2.0]hept-2-ene-2-carboxylic acid]
- MIC [1, 5]: 8 µg/mL (≈ 13.3 µM)
- MIC [2, 6]: 1 µg/mL (≈ 1.66 µM)
- MIC [3, 7]: 4 µg/mL (≈ 6.65 µM)
- MIC [4, 8]: 8 µg/mL (≈ 13.3 µM)

SMILES: C[C@@H](NC(=O)Cn1cnnn1)[C@H]1C(=O)N2C(C(=O)O)=C(S[C@@H]3CN[C@H](C(=O)N4CCN(C(=O)CCN)CC4)C3)[C@H](C)[C@H]12 [Example 419, (4R,5S,6R)-6-((R)-1-(2-(1H-tetrazol-1-yl)acetamido)ethyl)-3-((3S,5S)-5-(4-(3-aminopropanoyl)piperazine-1-carbonyl)pyrrolidin-3-ylthio)-4-methyl-7-oxo-1-azabicyclo[3.2.0]hept-2-ene-2-carboxylic acid]
- MIC [1, 5]: 4 µg/mL (≈ 6.61 µM)
- MIC [2, 6]: 0.25 µg/mL (≈ 0.413 µM)
- MIC [3, 7]: 1 µg/mL (≈ 1.65 µM)
- MIC [4, 8]: 1 µg/mL (≈ 1.65 µM)

SMILES: C[C@@H](NC(=O)Cn1cnnn1)[C@H]1C(=O)N2C(C(=O)O)=C(S[C@@H]3CN[C@H](C(=O)N4CCN(C(=O)[C@@H](N)CO)CC4)C3)[C@H](C)[C@H]12 [Example 420, (4R,5S,6R)-6-((R)-1-(2-(1H-tetrazol-1-yl)acetamido)ethyl)-3-((3S,5S)-5-(4-((S)-2-amino-3-hydroxypropanoyl)piperazine-1-carbonyl)pyrrolidin-3-ylthio)-4-methyl-7-oxo-1-azabicyclo[3.2.0]hept-2-ene-2-carboxylic acid]
- MIC [1, 5]: 4 µg/mL (≈ 6.44 µM)
- MIC [2, 6]: 0.25 µg/mL (≈ 0.403 µM)
- MIC [3, 7]: 1 µg/mL (≈ 1.61 µM)
- MIC [4, 8]: 2 µg/mL (≈ 3.22 µM)

SMILES: C[C@@H](NC(=O)Cn1cnnn1)[C@H]1C(=O)N2C(C(=O)O)=C(S[C@@H]3CN[C@H](C(=O)N4CCC(CNC(=O)CN)CC4)C3)[C@H](C)[C@H]12 [Example 422, (4R,5S,6R)-6-((R)-1-(2-(1H-tetrazol-1-yl)acetamido)ethyl)-3-((3S,5S)-5-(4-((2-aminoacetamido)methyl)piperidine-1-carbonyl)pyrrolidin-3-ylthio)-4-methyl-7-oxo-1-azabicyclo[3.2.0]hept-2-ene-2-carboxylic acid]
- MIC [1, 5]: 4 µg/mL (≈ 6.46 µM)
- MIC [2, 6]: 0.25 µg/mL (≈ 0.404 µM)
- MIC [3, 7]: 2 µg/mL (≈ 3.23 µM)
- MIC [4, 8]: 4 µg/mL (≈ 6.46 µM)

SMILES: C[C@@H](NC(=O)Cn1cnnn1)[C@H]1C(=O)N2C(C(=O)O)=C(S[C@@H]3CN[C@H](C(=O)N4CCC(CO)CC4)C3)[C@H](C)[C@H]12 [Example 423, (4R,5S,6R)-6-((R)-1-(2-(1H-tetrazol-1-yl)acetamido)ethyl)-3-((3S,5S)-5-(4-(hydroxymethyl)piperidine-1-carbonyl)pyrrolidin-3-ylthio)-4-methyl-7-oxo-1-azabicyclo[3.2.0]hept-2-ene-2-carboxylic acid]
- MIC [1, 5]: 8 µg/mL (≈ 14.2 µM)
- MIC [2, 6]: 0.5 µg/mL (≈ 0.889 µM)
- MIC [3, 7]: 2 µg/mL (≈ 3.55 µM)
- MIC [4, 8]: 32 µg/mL (≈ 56.9 µM)

SMILES: C[C@@H](NC(=O)Cn1cnnn1)[C@H]1C(=O)N2C(C(=O)O)=C(S[C@@H]3CN[C@H](C(=O)N4CC(N)(CC#N)C4)C3)[C@H](C)[C@H]12 [Example 424, (4R,5S,6R)-6-((R)-1-(2-(1H-tetrazol-1-yl)acetamido)ethyl)-3-((3S,5S)-5-(3-amino-3-(cyanomethyl)azetidine-1-carbonyl)pyrrolidin-3-ylthio)-4-methyl-7-oxo-1-azabicyclo[3.2.0]hept-2-ene-2-carboxylic acid]
- MIC [1, 5]: 16 µg/mL (≈ 28.6 µM)
- MIC [2, 6]: 0.25 µg/mL (≈ 0.448 µM)
- MIC [3, 7]: 2 µg/mL (≈ 3.58 µM)
- MIC [4, 8]: 16 µg/mL (≈ 28.6 µM)

SMILES: C[C@@H](NC(=O)Cn1cnnn1)[C@H]1C(=O)N2C(C(=O)O)=C(S[C@@H]3CN[C@H](C(=O)N4CCC(N5CC(O)C5)CC4)C3)[C@H](C)[C@H]12 [Example 426, (4R,5S,6R)-6-((R)-1-(2-(1H-tetrazol-1-yl)acetamido)ethyl)-3-((3S,5S)-5-(4-(3-hydroxyazetidin-1-yl]piperidine-1-carbonyl)pyrrolidin-3-ylthio)-4-methyl-7-oxo-1-azabicyclo[3.2.0]hept-2-ene-2-carboxylic acid]
- MIC [1, 5]: 4 µg/mL (≈ 6.63 µM)
- MIC [2, 6]: 0.25 µg/mL (≈ 0.414 µM)
- MIC [3, 7]: 1 µg/mL (≈ 1.66 µM)
- MIC [4, 8]: 2 µg/mL (≈ 3.31 µM)

SMILES: C[C@@H](NC(=O)Cn1cnnn1)[C@H]1C(=O)N2C(C(=O)O)=C(S[C@@H]3CN[C@H](C(=O)N4C[C@H](NC(=N)N)[C@@H](O)C4)C3)[C@H](C)[C@H]12 [Example 427, (4R,5S,6R)-6-((R)-1-(2-(1H-tetrazol-1-yl)acetamido)ethyl)-3-((3S,5S)-5-((3S,4S)-3-guanidino-4-hydroxypyrrolidine-1-carbonyl)pyrrolidin-3-ylthio)-4-methyl-7-oxo-1-azabicyclo[3.2.0]hept-2-ene-2-carboxylic acid]
- MIC [1, 5]: 2 µg/mL (≈ 3.38 µM)
- MIC [2, 6]: 0.25 µg/mL (≈ 0.423 µM)
- MIC [3, 7]: 1 µg/mL (≈ 1.69 µM)
- MIC [4, 8]: 2 µg/mL (≈ 3.38 µM)

SMILES: C[C@@H](NC(=O)Cn1cnnn1)[C@H]1C(=O)N2C(C(=O)O)=C(S[C@@H]3CN[C@H](C(=O)N4CCC(C(=O)N5CC[C@@H](N)C5)CC4)C3)[C@H](C)[C@H]12 [Example 428, (4R,5S,6R)-6-((R)-1-(2-(1H-tetrazol-1-yl)acetamido)ethyl)-3-((3S,5S)-5-(4-((R)-3-aminopyrrolidine-1-carbonyl)piperidine-1-carbonyl)pyrrolidin-3-ylthio)-4-methyl-7-oxo-1-azabicyclo[3.2.0]hept-2-ene-2-carboxylic acid]
- MIC [1, 5]: 4 µg/mL (≈ 6.2 µM)
- MIC [2, 6]: 0.5 µg/mL (≈ 0.775 µM)
- MIC [3, 7]: 4 µg/mL (≈ 6.2 µM)
- MIC [4, 8]: 2 µg/mL (≈ 3.1 µM)

SMILES: C[C@@H](NC(=O)Cn1cnnn1)[C@H]1C(=O)N2C(C(=O)O)=C(S[C@@H]3CN[C@H](C(=O)N4CC(N5CCNCC5)C4)C3)[C@H](C)[C@H]12 [Example 429, (4R,5S,6R)-6-((R)-1-(2-(1H-tetrazol-1-yl)acetamido)ethyl)-4-methyl-7-oxo-3-((3S,5S)-5-(3-(piperazin-1-yl)azetidine-1-carbonyl)pyrrolidin-3-ylthio)-1-azabicyclo[3.2.0]hept-2-ene-carboxylic acid]
- MIC [1, 5]: 4 µg/mL (≈ 6.79 µM)
- MIC [2, 6]: 0.25 µg/mL (≈ 0.425 µM)
- MIC [3, 7]: 2 µg/mL (≈ 3.4 µM)
- MIC [4, 8]: 2 µg/mL (≈ 3.4 µM)

SMILES: C[C@@H](NC(=O)Cn1cnnn1)[C@H]1C(=O)N2C(C(=O)O)=C(S[C@@H]3CN[C@H](C(=O)N4CCC(C(=O)N5CCNCC5)CC4)C3)[C@H](C)[C@H]12 [Example 430, (4R,5S,6R)-6-((R)-1-(2-(1H-tetrazol-1-yl)acetamido)ethyl)-4-methyl-7-oxo-3-((3S,5S)-5-(4-(piperazine-1-carbonyl)piperidine-1-carbonyl)pyrrolidin-3-ylthio)-1-azabicyclo[3.2.0]hept-2-ene-2-carboxylic acid]
- MIC [1, 5]: 4 µg/mL (≈ 6.2 µM)
- MIC [2, 6]: 0.5 µg/mL (≈ 0.775 µM)
- MIC [3, 7]: 2 µg/mL (≈ 3.1 µM)
- MIC [4, 8]: 4 µg/mL (≈ 6.2 µM)

SMILES: C[C@@H](NC(=O)Cn1cnnn1)[C@H]1C(=O)N2C(C(=O)O)=C(S[C@@H]3CN[C@H](C(=O)N4C[C@@H](O)[C@@H](N)C4)C3)[C@H](C)[C@H]12 [Example 431, (4R,5S,6R)-6-((R)-1-(2-(1H-tetrazol-1-yl)acetamido)ethyl)-3-((3S,5S)-5-((3S,4R)-3-amino-4-hydroxypyrrolidine-1-carbonyl)pyrrolidin-3-ylthio)-4-methyl-7-oxo-1-azabicyclo[3.2.0]hept-2-ene-2-carboxylic acid]
- MIC [1, 5]: 2 µg/mL (≈ 3.64 µM)
- MIC [2, 6]: 0.25 µg/mL (≈ 0.455 µM)
- MIC [3, 7]: 0.5 µg/mL (≈ 0.91 µM)
- MIC [4, 8]: 1 µg/mL (≈ 1.82 µM)

SMILES: C[C@@H](NC(=O)Cn1cnnn1)[C@H]1C(=O)N2C(C(=O)O)=C(S[C@@H]3CN[C@H](C(=O)N4CCN(CCNC(=N)N)CC4)C3)[C@H](C)[C@H]12 [Example 432, (4R,5S,6R)-6-((R)-1-(2-(1H-tetrazol-1-yl)acetamido)ethyl)-3-((3S,5S)-5-(4-(2-guanidinoethyl)piperazine-1-carbonyl)pyrrolidin-3-ylthio)-4-methyl-7-oxo-1-azabicyclo[3.2.0]hept-2-ene-2-carboxylic acid]
- MIC [1, 5]: 2 µg/mL (≈ 3.23 µM)
- MIC [2, 6]: 0.25 µg/mL (≈ 0.404 µM)
- MIC [3, 7]: 1 µg/mL (≈ 1.62 µM)
- MIC [4, 8]: 1 µg/mL (≈ 1.62 µM)

SMILES: C[C@@H](NC(=O)Cn1cnnn1)[C@H]1C(=O)N2C(C(=O)O)=C(S[C@@H]3CN[C@H](C(=O)N4CCC(N)C(F)C4)C3)[C@H](C)[C@H]12 (stereo partly drawn) [Example 433, (4R,5S,6R)-6-((R)-1-(2-(1H-tetrazol-1-yl)acetamido)ethyl)-3-((3S,5S)-5-(4-amino-3-fluoropiperidine-1-carbonyl)pyrrolidin-3-ylthio)-4-methyl-7-oxo-1-azabicyclo[3.2.0]hept-2-ene-2-carboxylic acid]
- MIC [1]: 2 µg/mL (≈ 3.54 µM)
- MIC ([2]; ESBL −ve E. coli ATCC25922): 0.25 µg/mL (≈ 0.442 µM)
- MIC ([3]; KPC-2 K. pneumoniae ATCC BAA-1705): 1 µg/mL (≈ 1.77 µM)
- MIC ([4]; Meropenem susceptible P. aeruginosa ATCC27853): 1 µg/mL (≈ 1.77 µM)
